Laboratory results: article PMC5218480 (PLoS ONE, 2017)

Test system: MV-4-11 cells
Assay: Gene expression microarray analysis (Affymetrix PrimeView) and GSEA
Type: cell-based, human
Set-up: RFU PODN (11730768_x_at) / Fold change /veh PODN (11730768_x_at) / RFU LINC00158 (11744669_a_at) / Fold change /veh LINC00158 (11744669_a_at) / RFU DUSP10 (11751237_a_at) / Fold change /veh DUSP10 (11751237_a_at) / RFU ID3 (11757404_x_at) / Fold change /veh ID3 (11757404_x_at) / RFU PLEKHG5 (11737974_s_at) / Fold change /veh PLEKHG5 (11737974_s_at) / RFU LRRC4B (11730491_at) / Fold change /veh LRRC4B (11730491_at) / RFU GIMAP4 (11747438_a_at) / Fold change /veh GIMAP4 (11747438_a_at) / RFU KRT8 (11758183_x_at) / Fold change /veh KRT8 (11758183_x_at) / RFU CNN1 (11734310_a_at) / Fold change /veh CNN1 (11734310_a_at) / RFU VPS37D (11726825_at) / Fold change /veh VPS37D (11726825_at) / RFU C10orf10 (11716522_x_at) / Fold change /veh C10orf10 (11716522_x_at) / RFU KIR2DL2 /// KIR2DL4 /// KIR2DL5A /// KIR2DL5B /// KIR2DS1 /// KIR2DS2 /// KIR2DS3 /// KIR2DS4 /// KIR3DL3 /// KIR3DL3 /// KIR3DS1 (11738374_at) / Fold change /veh KIR2DL2 /// KIR2DL4 /// KIR2DL5A /// KIR2DL5B /// KIR2DS1 /// KIR2DS2 /// KIR2DS3 /// KIR2DS4 /// KIR3DL3 /// KIR3DL3 /// KIR3DS1 (11738374_at) / RFU C1QL1 (11718748_at) / Fold change /veh C1QL1 (11718748_at) / RFU TMPRSS4 (11747572_a_at) / Fold change /veh TMPRSS4 (11747572_a_at) / RFU HAMP (11756126_x_at) / Fold change /veh HAMP (11756126_x_at) / RFU RNFT2 (11725882_a_at) / Fold change /veh RNFT2 (11725882_a_at) / RFU NR4A2 (11747474_a_at) / Fold change /veh NR4A2 (11747474_a_at) / RFU ABCC12 (11746883_a_at) / Fold change /veh ABCC12 (11746883_a_at) / RFU TMEM136 (11760407_x_at) / Fold change /veh TMEM136 (11760407_x_at) / RFU CLDN22 /// WWC2 (11732394_at) / Fold change /veh CLDN22 /// WWC2 (11732394_at) / RFU HLA-DPB1 (11760878_x_at) / Fold change /veh HLA-DPB1 (11760878_x_at) / RFU SPINT1 (11716480_a_at) / Fold change /veh SPINT1 (11716480_a_at) / RFU GAP43 (11754022_s_at) / Fold change /veh GAP43 (11754022_s_at) / RFU A4GNT (11735810_at) / Fold change /veh A4GNT (11735810_at) / RFU PRB3 (11715151_x_at) / Fold change /veh PRB3 (11715151_x_at) / RFU TUBB4B (11761932_at) / Fold change /veh TUBB4B (11761932_at) / RFU CAPN14 (11732068_a_at) / Fold change /veh CAPN14 (11732068_a_at) / RFU TMCC2 (11721928_a_at) / Fold change /veh TMCC2 (11721928_a_at) / RFU IRGQ (11745062_a_at) / Fold change /veh IRGQ (11745062_a_at) / RFU FAM174B (11720279_a_at) / Fold change /veh FAM174B (11720279_a_at) / RFU TMPRSS4 (11748680_a_at) / Fold change /veh TMPRSS4 (11748680_a_at) / RFU FAM212B (11763350_a_at) / Fold change /veh FAM212B (11763350_a_at) / RFU PLEKHG5 (11743358_a_at) / Fold change /veh PLEKHG5 (11743358_a_at) / RFU ZSCAN30 (11745921_a_at) / Fold change /veh ZSCAN30 (11745921_a_at) / RFU CMKLR1 (11741424_a_at) / Fold change /veh CMKLR1 (11741424_a_at) / RFU LOC101060620 /// MAPK8IP1 (11723275_at) / Fold change /veh LOC101060620 /// MAPK8IP1 (11723275_at) / RFU SPTSSB (11747773_x_at) / Fold change /veh SPTSSB (11747773_x_at) / RFU PRSS12 (11739890_at) / Fold change /veh PRSS12 (11739890_at) / RFU BIN1 (11741810_x_at) / Fold change /veh BIN1 (11741810_x_at) / RFU WNT11 (11732464_a_at) / Fold change /veh WNT11 (11732464_a_at) / RFU C10orf10 (11716521_a_at) / Fold change /veh C10orf10 (11716521_a_at) / RFU C5orf56 (11738089_at) / Fold change /veh C5orf56 (11738089_at) / RFU CYB561 (11721691_x_at) / Fold change /veh CYB561 (11721691_x_at) / RFU ANKRD19P (11752326_a_at) / Fold change /veh ANKRD19P (11752326_a_at) / RFU OR2T12 /// OR2T33 /// OR2T8 (11738714_s_at) / Fold change /veh OR2T12 /// OR2T33 /// OR2T8 (11738714_s_at) / RFU VCAN (11748164_a_at) / Fold change /veh VCAN (11748164_a_at) / RFU JSRP1 (11732532_at) / Fold change /veh JSRP1 (11732532_at) / RFU KRTAP10-11 (11738290_x_at) / Fold change /veh KRTAP10-11 (11738290_x_at) / RFU MYO3A (11730013_a_at) / Fold change /veh MYO3A (11730013_a_at) / RFU EBF3 (11725865_a_at) / Fold change /veh EBF3 (11725865_a_at) / RFU CAMK2N1 (11719241_x_at) / Fold change /veh CAMK2N1 (11719241_x_at) / RFU C5orf56 (11738088_a_at) / Fold change /veh C5orf56 (11738088_a_at) / RFU OLFML3 (11715873_a_at) / Fold change /veh OLFML3 (11715873_a_at) / RFU LOC100653217 /// NTM (11731650_a_at) / Fold change /veh LOC100653217 /// NTM (11731650_a_at) / RFU MAPK11 (11762145_a_at) / Fold change /veh MAPK11 (11762145_a_at) / RFU FIZ1 (11724087_x_at) / Fold change /veh FIZ1 (11724087_x_at) / RFU OASL (11726364_x_at) / Fold change /veh OASL (11726364_x_at) / RFU SOX15 (11748057_x_at) / Fold change /veh SOX15 (11748057_x_at) / RFU CD79A (11719716_a_at) / Fold change /veh CD79A (11719716_a_at) / RFU HIST1H1D (11736915_at) / Fold change /veh HIST1H1D (11736915_at) / RFU CASKIN2 (11723855_a_at) / Fold change /veh CASKIN2 (11723855_a_at) / RFU LOC730098 (11760151_x_at) / Fold change /veh LOC730098 (11760151_x_at) / RFU OR4N2 (11742367_at) / Fold change /veh OR4N2 (11742367_at) / RFU PRRT2 (11749266_a_at) / Fold change /veh PRRT2 (11749266_a_at) / RFU SNX32 (11753110_a_at) / Fold change /veh SNX32 (11753110_a_at) / RFU CDHR5 (11726645_a_at) / Fold change /veh CDHR5 (11726645_a_at) / RFU RCAN1 (11760418_a_at) / Fold change /veh RCAN1 (11760418_a_at) / RFU FAM167A (11723789_a_at) / Fold change /veh FAM167A (11723789_a_at) / RFU FAM26E (11764081_at) / Fold change /veh FAM26E (11764081_at) / RFU ISYNA1 (11749810_s_at) / Fold change /veh ISYNA1 (11749810_s_at) / RFU ACY1 (11761880_at) / Fold change /veh ACY1 (11761880_at) / RFU 11764098_at / Fold change /veh 11764098_at / RFU SAMD14 (11745864_x_at) / Fold change /veh SAMD14 (11745864_x_at) / RFU NPB (11741838_a_at) / Fold change /veh NPB (11741838_a_at) / RFU TMPRSS6 (11731388_a_at) / Fold change /veh TMPRSS6 (11731388_a_at) / RFU KRTAP10-2 (11738614_at) / Fold change /veh KRTAP10-2 (11738614_at) / RFU ARHGAP8 /// PRR5-ARHGAP8 (11727945_x_at) / Fold change /veh ARHGAP8 /// PRR5-ARHGAP8 (11727945_x_at) / RFU KRTAP5-7 /// NADSYN1 (11734609_at) / Fold change /veh KRTAP5-7 /// NADSYN1 (11734609_at) / RFU RASL12 (11751679_a_at) / Fold change /veh RASL12 (11751679_a_at) / RFU CDKN2B (11736163_a_at) / Fold change /veh CDKN2B (11736163_a_at) / RFU PRF1 (11729649_at) / Fold change /veh PRF1 (11729649_at) / RFU, ZNF638 /// ZNF638-IT1 / Fold change vs veh, ZNF638 /// ZNF638-IT1 / RFU, PANK3 / Fold change vs veh, PANK3 / RFU, SH3YL1 / Fold change vs veh, SH3YL1 / RFU, ZEB2 / Fold change vs veh, ZEB2 / RFU, NRIP1 / Fold change vs veh, NRIP1 / RFU, PTTG1IP / Fold change vs veh, PTTG1IP / RFU, CAPN2 / Fold change vs veh, CAPN2 / RFU, MED14 / Fold change vs veh, MED14 / RFU, SNORA58 / Fold change vs veh, SNORA58 / RFU, C1orf63 / Fold change vs veh, C1orf63 / RFU, LRRFIP1 / Fold change vs veh, LRRFIP1 / RFU, NDUFAF7 / Fold change vs veh, NDUFAF7 / RFU, SLC12A2 / Fold change vs veh, SLC12A2 / RFU, IBTK / Fold change vs veh, IBTK / RFU, ESF1 / Fold change vs veh, ESF1 / Fold change vs veh, TMEM50B / RFU, TAOK1 / Fold change vs veh, TAOK1 / RFU, ACBD3 / Fold change vs veh, ACBD3 / RFU, TMA16 / Fold change vs veh, TMA16 / RFU, RWDD3 / Fold change vs veh, RWDD3 / RFU, BCAT1 / Fold change vs veh, BCAT1 / RFU, EDEM3 / Fold change vs veh, EDEM3 / RFU, TMEM33 / Fold change vs veh, TMEM33 / RFU, WDR75 / Fold change vs veh, WDR75 / RFU, AHCTF1 / Fold change vs veh, AHCTF1 / RFU, TFRC / Fold change vs veh, TFRC / RFU, ZDHHC17 / Fold change vs veh, ZDHHC17 / RFU, NOM1 / Fold change vs veh, NOM1 / RFU, ARL8B / Fold change vs veh, ARL8B / RFU, ZBTB11 / Fold change vs veh, ZBTB11 / RFU, TAMM41 / Fold change vs veh, TAMM41 / RFU, KIAA1704 /// LOC100996395 / Fold change vs veh, KIAA1704 /// LOC100996395 / RFU, ING1 / Fold change vs veh, ING1 / RFU, TRMT61B / Fold change vs veh, TRMT61B / RFU, FUBP3 / Fold change vs veh, FUBP3 / RFU, TP53 / Fold change vs veh, TP53 / RFU, TNKS2 / Fold change vs veh, TNKS2 / RFU, ZFP14 / Fold change vs veh, ZFP14 / RFU, ACTR2 / Fold change vs veh, ACTR2 / RFU, PPP3R1 / Fold change vs veh, PPP3R1 / RFU, PIK3R1 / Fold change vs veh, PIK3R1 / RFU, HNRNPA1 / Fold change vs veh, HNRNPA1 / RFU, RNF170 / Fold change vs veh, RNF170 / RFU, ZNF28 / Fold change vs veh, ZNF28 / RFU, RNGTT / Fold change vs veh, RNGTT / RFU, OGT / Fold change vs veh, OGT / RFU, BRD1 / Fold change vs veh, BRD1 / RFU, MARS / Fold change vs veh, MARS / RFU, ZNF655 / Fold change vs veh, ZNF655 / RFU, FAHD1 / Fold change vs veh, FAHD1 / RFU, BDP1 / Fold change vs veh, BDP1 / RFU, LRRCC1 / Fold change vs veh, LRRCC1 / RFU, ARID1A / Fold change vs veh, ARID1A / RFU, ZNF146 / Fold change vs veh, ZNF146 / RFU, ZNF330 / Fold change vs veh, ZNF330 / RFU, GPN3 / Fold change vs veh, GPN3 / RFU, C9orf123 / Fold change vs veh, C9orf123 / RFU, N4BP2L2 / Fold change vs veh, N4BP2L2 / RFU, ARFIP1 / Fold change vs veh, ARFIP1 / RFU, FAM179B / Fold change vs veh, FAM179B / RFU, BCL10 / Fold change vs veh, BCL10 / RFU, UHRF1BP1L / Fold change vs veh, UHRF1BP1L / RFU, BET1 / Fold change vs veh, BET1 / RFU, CNOT2 / Fold change vs veh, CNOT2 / RFU, ZNF268 / Fold change vs veh, ZNF268 / Fold change vs veh, ZNF507 / RFU, DGCR2 / Fold change vs veh, DGCR2 / RFU, WDSUB1 / Fold change vs veh, WDSUB1 / Fold change vs veh, HSP90B1 /// MIR3652 / RFU, ADSS / Fold change vs veh, ADSS / RFU, GK / Fold change vs veh, GK / RFU, ZNF148 / Fold change vs veh, ZNF148 / RFU, TAF9 / Fold change vs veh, TAF9 / RFU, SLC1A5 / Fold change vs veh, SLC1A5 / RFU, SLMO2 / Fold change vs veh, SLMO2 / RFU, ABCC4 / Fold change vs veh, ABCC4 / RFU, LOC101060439 /// RAP1B / Fold change vs veh, LOC101060439 /// RAP1B / RFU, RFX7 / Fold change vs veh, RFX7 / RFU, GTPBP10 / Fold change vs veh, GTPBP10 / RFU, CNEP1R1 / Fold change vs veh, CNEP1R1 / RFU, BIVM-ERCC5 /// ERCC5 / Fold change vs veh, BIVM-ERCC5 /// ERCC5 / RFU, ILF3 / Fold change vs veh, ILF3 / RFU 11762660_at / Fold change /veh 11762660_at / RFU VCAN (11757783_s_at) / Fold change /veh VCAN (11757783_s_at) / RFU DDX43 (11728927_at) / Fold change /veh DDX43 (11728927_at) / RFU KRT8 (11758188_x_at) / Fold change /veh KRT8 (11758188_x_at) / RFU NKD1 (11759106_at) / Fold change /veh NKD1 (11759106_at) / RFU SRD5A1 (11742802_a_at) / Fold change /veh SRD5A1 (11742802_a_at) / RFU TPSAB1 /// TPSB2 (11721975_s_at) / Fold change /veh TPSAB1 /// TPSB2 (11721975_s_at) / RFU GSTM3 (11746129_a_at) / Fold change /veh GSTM3 (11746129_a_at) / RFU IL23R (11737362_x_at) / Fold change /veh IL23R (11737362_x_at) / RFU TMEM51 (11727254_a_at) / Fold change /veh TMEM51 (11727254_a_at) / RFU PIWIL2 (11732686_x_at) / Fold change /veh PIWIL2 (11732686_x_at) / RFU ORM1 (11744905_x_at) / Fold change /veh ORM1 (11744905_x_at) / RFU CCDC152 (11743942_at) / Fold change /veh CCDC152 (11743942_at) / RFU ECM1 (11717891_a_at) / Fold change /veh ECM1 (11717891_a_at) / RFU IL23R (11748794_a_at) / Fold change /veh IL23R (11748794_a_at) / RFU TNFAIP8L3 (11732012_x_at) / Fold change /veh TNFAIP8L3 (11732012_x_at) / RFU MBOAT4 (11741988_at) / Fold change /veh MBOAT4 (11741988_at) / RFU 11764193_at / Fold change /veh 11764193_at / RFU TMEM53 (11763286_at) / Fold change /veh TMEM53 (11763286_at) / RFU MAGEB2 (11727129_at) / Fold change /veh MAGEB2 (11727129_at) / RFU TMEM200A (11744735_a_at) / Fold change /veh TMEM200A (11744735_a_at) / RFU CCDC152 (11751479_a_at) / Fold change /veh CCDC152 (11751479_a_at) / RFU FAM211A (11726209_a_at) / Fold change /veh FAM211A (11726209_a_at) / RFU RGS16 (11746705_a_at) / Fold change /veh RGS16 (11746705_a_at) / RFU VCAN (11755009_s_at) / Fold change /veh VCAN (11755009_s_at) / RFU RHOB (11743442_s_at) / Fold change /veh RHOB (11743442_s_at) / RFU RGS16 (11720943_a_at) / Fold change /veh RGS16 (11720943_a_at) / RFU RGS16 (11720944_at) / Fold change /veh RGS16 (11720944_at) / RFU, VPS4B / Fold change vs veh, VPS4B / RFU, CREB1 / Fold change vs veh, CREB1 / RFU, DNAJC13 / Fold change vs veh, DNAJC13 / RFU, GNAQ / Fold change vs veh, GNAQ / RFU, CDK5R1 / Fold change vs veh, CDK5R1 / RFU, ZRANB3 / Fold change vs veh, ZRANB3 / RFU, CUL4A / Fold change vs veh, CUL4A / RFU, CCNY / Fold change vs veh, CCNY / RFU, UFL1 / Fold change vs veh, UFL1 / RFU, COG3 / Fold change vs veh, COG3 / RFU, DIAPH2 / Fold change vs veh, DIAPH2 / RFU, SKA2 / Fold change vs veh, SKA2 / RFU, AFF3 / Fold change vs veh, AFF3 / RFU, LMF1 / Fold change vs veh, LMF1 / RFU, IPO11 / Fold change vs veh, IPO11 / RFU, DFFB / Fold change vs veh, DFFB / RFU, FOXP1 / Fold change vs veh, FOXP1 / RFU, CARD8 / Fold change vs veh, CARD8 / RFU, STRN3 / Fold change vs veh, STRN3 / RFU, ADK / Fold change vs veh, ADK / RFU, RASSF2 / Fold change vs veh, RASSF2 / RFU, WIPF1 / Fold change vs veh, WIPF1 / RFU, LARP1B / Fold change vs veh, LARP1B / RFU, RASA1 / Fold change vs veh, RASA1 / RFU, RB1 / Fold change vs veh, RB1 / RFU, PPFIA1 / Fold change vs veh, PPFIA1 / RFU, MAT2A / Fold change vs veh, MAT2A / RFU, CCT5 / Fold change vs veh, CCT5 / RFU, WDR92 / Fold change vs veh, WDR92 / RFU, CUX1 / Fold change vs veh, CUX1 / RFU, TTC7A / Fold change vs veh, TTC7A / RFU, TMEM135 / Fold change vs veh, TMEM135 / RFU, DEPTOR / Fold change vs veh, DEPTOR / RFU, CPM / Fold change vs veh, CPM / RFU, DNAJB6 / Fold change vs veh, DNAJB6 / RFU, CACNA2D3 / Fold change vs veh, CACNA2D3 / RFU, DTX4 / Fold change vs veh, DTX4 / RFU, TFCP2 / Fold change vs veh, TFCP2 / RFU, GMCL1 /// GMCL1P1 / Fold change vs veh, GMCL1 /// GMCL1P1 / RFU, AEBP2 / Fold change vs veh, AEBP2 / RFU, SNHG1 /// SNORD22 /// SNORD25 /// SNORD26 /// SNORD27 /// SNORD28 /// SNORD29 /// SNORD31 / Fold change vs veh, SNHG1 /// SNORD22 /// SNORD25 /// SNORD26 /// SNORD27 /// SNORD28 /// SNORD29 /// SNORD31 / Fold change (Aza/veh), C12orf56 (ProbeSet 11735607_a_at) / Fold change (ACY-1035/veh), C12orf56 (ProbeSet 11735607_a_at) / Fold change (Aza/veh), FGFR1OP (ProbeSet 11751329_s_at) / Fold change (ACY-1035/veh), FGFR1OP (ProbeSet 11751329_s_at) / Fold change (Aza/veh), VPS36 (ProbeSet 11739960_a_at) / Fold change (ACY-1035/veh), VPS36 (ProbeSet 11739960_a_at) / RFU SYPL1 (11715823_x_at) / Fold change /veh SYPL1 (11715823_x_at) / RFU IGFBP7 (11715501_s_at) / Fold change /veh IGFBP7 (11715501_s_at) / RFU REEP3 (11722064_at) / Fold change /veh REEP3 (11722064_at) / RFU IGLL1 (11728026_x_at) / Fold change /veh IGLL1 (11728026_x_at): dose or concentration left out as unconfirmed
Conditions: MV-4-11 cells, 48 hours

Structure (SMILES): Nc1ncn([C@@H]2O[C@H](CO)[C@@H](O)[C@H]2O)c(=O)n1 [azacitidine]
- RFU KRT8 (11758188_x_at): 23.78 RFU
